Test results taken from patent US11214574B2, “Selective inhibitors of protein arginine methyltransferase 5 (PRMT5)” (Prelude Therapeutics, Incorporated, priority 2018, dated 2022).

Columns and labels:
[1] = system: γ-globin expression in K562 cells; assay: γ-globin induction by quantitative PCR in K562 cells; assay type: cell-based; details: 0.1 μM, 6 days, N=1
Experimental: Compounds were dissolved in DMSO to make 10 mM stock solutions, and further diluted to make 1 mM and 0.1 mM stocks.
K562 cells were purchased from ATCC and maintained in Iscove's DMEM (Corning Cellgro, Catalog #15-016-CVR) supplemented with 10% v/v FBS (GE Healthcare, Catalog #: SH30910.03) in a CO2 incubator (5% CO2) at 37° C. Cells were plated at a density of 5×10^5 cells/ml and treated with compound at final concentrations of 0.1 and 1 μM. Media and compound were renewed after 3 days in culture and cells were collected for RNA isolation after 6 days of treatment.
Assessment of γ-Globin Induction by Quantitative PCR
RNA was isolated using Quick-RNA Microprep kit (Zymo Research, Catalog #Z1050), cDNA was synthesized using qScript cDNA SuperMix (Quantabio, Catalog #95048). Quantitative PCR for γ-globin was performed using PerfeCTa SYBR Green FastMix (Quantabio, Catalog #95071) on Bio-Rad CFX Connect Real-Time PCR Detection System. Gene expression analysis was performed using CFX Manager software.
Assessment of γ-Globin Induction by Quantitative PCR in K562 Cells
Compounds were dissolved in DMSO to make 10 mM stock solutions, and further diluted to make 1 mM and 0.1 mM stocks. K562 cells were purchased from ATCC and maintained in Iscove's DMEM (Corning Cellgro, Catalog #15-016-CVR) supplemented with 10% v/v FBS (GE Healthcare, Catalog #: SH30910.03) in a CO2 incubator (5% CO2) at 37° C. […]

PRMT5/MEP50 complex = PRMT5/MEP50 complex (Homo sapiens (Human), UniProt O14744); assay: PRMT5 biochemical assay (SPA, 3H-SAM); details: PRMT5/MEP50 2.5 nM, 300 nM AcH4-23 substrate, 1 μM 3H-SAM
Chain of PRMT5/MEP50 complex (O14744 whole entry): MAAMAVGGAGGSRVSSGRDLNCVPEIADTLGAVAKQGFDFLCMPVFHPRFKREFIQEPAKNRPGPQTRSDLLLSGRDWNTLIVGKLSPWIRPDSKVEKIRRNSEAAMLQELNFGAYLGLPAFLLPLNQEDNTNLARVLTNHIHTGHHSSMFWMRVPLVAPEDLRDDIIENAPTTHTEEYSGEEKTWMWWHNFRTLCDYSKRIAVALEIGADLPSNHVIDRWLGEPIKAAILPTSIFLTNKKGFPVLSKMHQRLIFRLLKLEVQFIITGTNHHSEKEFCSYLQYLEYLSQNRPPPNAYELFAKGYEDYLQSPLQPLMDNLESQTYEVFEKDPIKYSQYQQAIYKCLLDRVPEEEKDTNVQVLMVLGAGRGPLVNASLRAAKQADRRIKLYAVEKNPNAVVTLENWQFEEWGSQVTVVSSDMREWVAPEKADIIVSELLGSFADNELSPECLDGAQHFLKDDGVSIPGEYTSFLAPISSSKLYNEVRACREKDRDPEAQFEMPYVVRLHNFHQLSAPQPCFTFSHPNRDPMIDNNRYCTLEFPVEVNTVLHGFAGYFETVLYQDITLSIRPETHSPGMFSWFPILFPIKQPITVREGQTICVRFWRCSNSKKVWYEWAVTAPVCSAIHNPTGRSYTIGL
Chain of PRMT5/MEP50 complex (Q9BQA1 whole entry partner): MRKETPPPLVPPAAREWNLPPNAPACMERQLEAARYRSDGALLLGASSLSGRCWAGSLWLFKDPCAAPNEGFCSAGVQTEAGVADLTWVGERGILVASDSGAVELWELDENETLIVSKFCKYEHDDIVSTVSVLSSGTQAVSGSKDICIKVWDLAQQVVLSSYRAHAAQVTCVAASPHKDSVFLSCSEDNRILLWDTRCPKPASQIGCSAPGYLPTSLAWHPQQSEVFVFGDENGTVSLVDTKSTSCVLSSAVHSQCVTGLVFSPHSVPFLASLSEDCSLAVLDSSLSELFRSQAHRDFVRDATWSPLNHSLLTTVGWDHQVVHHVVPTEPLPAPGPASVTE
Experimental: Biochemical Assay Protocol
Compounds were solubilized and 3-fold diluted in 100% DMSO. […] Standard reactions were performed in a total volume of 30 μl in assay buffer, with 300 nM histone H4 based AcH4-23 (Anaspec: AS-65002) as substrate. To this was added the PRMT5/MEP50 complex diluted to provide a final assay concentration of 2.5 nM and the compounds were allowed to preincubate for 20 minutes at 37° C. The reaction was initiated by adding S-[3H-methyl]-adenosyl-L-methionine (PerkinElmer: NET155001MC) to final concentration of 1 μM. Following a 30 minutes incubation at 37° C., the reaction was stopped by adding 25 μL of 8M Guanidine HCl. Prepare streptavidin YSI SPA beads (Perkinelmer: RPNQ0012) at 0.3 mg/mL in assay buffer. To each reaction, add 150 μL of SPA beads suspension, and incubated while shaking at room temperature for 30 minutes. The plate was centrifuged at 100×g for 30 second before reading in a scintillation counter. IC50 values were determined by fitting the data to the standard 4 parameters with Hill Slope using GraphPad Prism software.

[2] = system: sDMA marks (SmD3me2s) in Granta-519 cells; assay: Western blotting for symmetric di-methyl arginine (sDMA) marks in Granta-519 cells; assay type: cell-based; details: Homo sapiens, 72 h; Granta-519 cell line (values in square brackets), 3 days treatment
Experimental: Cell Treatment and Western Blotting for Detecting Symmetric Di-Methyl Arginine (sDMA) Marks
Compound titration and cell culture: Compounds were dissolved in DMSO to make 10 mM stock and 3-fold series dilutions were further conducted to make working stocks top at 1 mM. Granta-519 cells were maintained in PRMI 1640 (Corning Cellgro, Catalog #: 10-040-CV) supplemented with 10% v/v FBS (GE Healthcare, Catalog #: SH30910.03) and U-87 MG cells were maintained in DMEM (Corning Cellgro, Catalog #: 10-013-CV) with 10% FBS and 2 mM Glutamin (Corning Cellgro, Catalog #25005CV).
To determine enzyme inhibition IC50 values in Granta-519 and U-87 MG cells using Western Blot analysis. One day before experiment, Granta-519 cells were passaged to a density of 0.5×10^6 cells/ml. U-87 MG cells were trypsinized and 4×10^5 cells were seeded into 6-well plates and allow to grow overnight. […]
Cells were harvested 3 days later, resuspended in 15 uL PBS, lysed in 4% SDS, and homogenized by passing through homogenizer column (Omega Biotek, Catalog #: HCR003). Total protein concentrations were determined by BCA assay (ThermoFisher Scientific, Catalog #: 23225). […] SmD3me2s bands were quantified by ImageJ. […] IC50 values were calculated using Graphpad Prism ([Inhibitor] vs. normalized response—Variable slope).

Nc1ncnc2c1ccn2[C@@H]1O[C@H]([C@@H]2OCc3ccc(Cl)cc32)[C@@H](O)[C@H]1O [Example 5, (2R,3R,4S,5S)-2-(4-amino-7H-pyrrolo[2,3-d]pyrimidin-7-yl)-5-((R)-6-chloro-1,3-dihydroisobenzofuran-1-yl)tetrahydrofuran-3,4-diol]
increase in expression of γ-globin [1]: 3 fold

Cc1ncnc2c1ccn2[C@@H]1O[C@H]([C@@H]2OCCCc3cc(Cl)ccc32)[C@@H](O)[C@H]1O [Example 101, (2S,3S,4R,5R)-2-((R)-7-chloro-1,3,4,5-tetrahydrobenzo[c]oxepin-1-yl)-5-(4-methyl-7H-pyrrolo[2,3-d]pyrimidin-7-yl)tetrahydrofuran-3,4-diol]
IC50 (PRMT5/MEP50 complex): 1580 nM

Nc1ncnc2c1ccn2[C@@H]1O[C@H]([C@@H]2OCOCc3cc(Cl)ccc32)[C@@H](O)[C@H]1O [Example 81, (2R,3R,4S,5S)-2-(4-amino-7H-pyrrolo[2,3-d]pyrimidin-7-yl)-5-((R)-7-chloro-1,5-dihydrobenzo[e][1,3]dioxepin-1-yl)tetrahydrofuran-3,4-diol]
IC50 (PRMT5/MEP50 complex): 41.5 nM

Nc1ncnc2c1ccn2[C@@H]1C[C@H]([C@H]2OCc3cc(Cl)ccc32)[C@@H](O)[C@H]1O [Example 2A, (1R,2S,3R,5S)-3-(4-amino-7H-pyrrolo[2,3-d]pyrimidin-7-yl)-5-((R)-5-chloro-1,3-dihydroisobenzofuran-1-yl)cyclopentane-1,2-diol]
IC50 [2]: 27 nM
